One data set addresses T1, p38 MAPK alpha (MAPK14) (Homo sapiens, UniProt Q16539).
T1 construct: purchased Invitrogen
As to the kind of experiment: Enzyme inhibition assay, p38 MAPK alpha (FRET, Z-LYTE, via MAPKAP-K2). It counts as biochemical. To be noted: read-out: Enzyme p38α IC50.

The next data set deals with BEAS2B cells. As to the kind of experiment: Poly I:C-induced ICAM-1 induction in BEAS2B cells. To be noted: Homo sapiens, BEAS-2B, read-out: BEAS2B (polyIC) ICAM1 IC50. It counts as cell-based. The protocol: Poly I:C-Induced ICAM-1 Induction in BEAS2B Cells: Potency Poly I:C (1 ug/ml) (Invivogen Ltd., San Diego, Calif.) was transfected into BEAS2B cells (human bronchial epithelial cells, ATCC) with Oligofectamine (Invitrogen, Carlsbad, Calif.). Cells were pre-incubated with final concentrations of compound for 2 hrs. The level of ICAM1 expression on the cell surface was determined by cell-based ELISA. Briefly, at 18 hrs after poly I:C transfection, cells were fixed with 4% formaldehyde in PBS. After quenching endogenous peroxidase by adding 0.1% sodium azide and 1% hydrogen peroxide, cells were washed with wash-buffer (0.1% Tween in PBS: PBS-Tween). After blocking the wells with 5% milk in PBS-Tween for 1 hr, the cells were incubated with anti-human ICAM-1 antibody (Cell Signaling Technology, Danvers, Mass.) in 1% BSA PBS overnight at 4° C. Cells were washed with PBS-Tween and incubated with the secondary antibody (HRP-conjugated anti-rabbit IgG, Dako Ltd., Glostrup, Denmark). The ICAM-1 signal was detected by adding substrate and reading at 450 nm with a reference wavelength of 655 nm using a spectrophotometer. […] The measured OD 450-655 readings were corrected for cell number by dividing with the OD595 reading in each well.

The next data set has as its system THP-1 cells. As to the kind of experiment: LPS-induced TNF alpha release in THP-1 cells. The format is cell-based. To be noted: Homo sapiens. On the procedure:
LPS-Induced TNF Alpha Release in THP-1 Cells: Potency […] Coli; O111:B4, Sigma) for 4 hr and the supernatant collected for determination of TNFα concentration by sandwich ELISA (Duo-set, R&D systems). The inhibition of TNFα production was calculated at each concentration by comparison with vehicle control.

Data set [1] relates to U937 cells. As to the kind of experiment: LPS-induced TNF alpha release in U937 cells. The format is cell-based. The protocol:
(§1) LPS-Induced TNF Alpha/IL-8 Release in U937 Cells: Potency U937 cells, human monocytic cell line, were differentiated to macrophage-type cells by incubation with phorbol myristate acetate (PMA; 100 ng/ml) for 48 to 72 hours. Cells were pre-incubated with final concentrations of compound for 2 hrs. […] Coli: O111:B4, Sigma) for 4 hrs, and the supernatant collected for determination of TNFα and IL-8 concentration by sandwich ELISA (Duo-set, R&D systems). […] The inhibition of IL-8 production was calculated at each concentration of test compound by comparison with vehicle control.

In data set [2] the test system is Differentiated U937 cells. As to the kind of experiment: MTT assay (cell viability). The format is cell-based, human. The protocol:
MTT Assay Differentiated U937 cells were pre-incubated with compound for 4 hrs in 5% FCS or 10% FCS for 24 hrs. […] After 1 hr incubation, the media were removed, 200 ul of DMSO added to each well and the plates were shaken lightly for 1 h prior to reading the absorbance at 550 nm. The percentage loss of cell viability was calculated for each well relative to vehicle (0.5% DMSO)-treatment. Consequently an apparent increase in cell viability for drug treatment relative to vehicle is tabulated as a negative percentage.
A general note: Tetrazolium dyes change colour on reduction, which living cells bring about.

Data set [3] has as its system U937 cells. As to the kind of experiment: LPS-induced IL-8 release in U937 cells. It counts as cell-based. To be noted: Homo sapiens, read-out: DU937 (LPS) IL-8 IC50. On the procedure:
as §1

Where [4] appears, read: THP-1, Table 3, read-out: THP-1 (LPS) TNFα IC50.
Setting [5] is: Homo sapiens; read-out: DU937 (LPS) TNFα REC50.
Setting [6] is: Table 3, first MTT column, loss of cell viability at 1 μg/ml.
Setting [7] is: Table 3, second MTT column, loss of cell viability at 1 μg/ml.
Setting [8] is: THP-1, Table 2, read-out: THP-1 (LPS) TNFα IC50.
[9] abbreviates: Table 2, loss of cell viability at 1 μg/ml.
The mark [10] stands for this setting: Table 2, loss of cell viability, test conducted at 10 μg/ml.
Where [11] appears, read: THP-1, read-out: THP-1 (LPS) TNFα IC50.
Where [12] appears, read: Homo sapiens, read-out: DU937 (LPS) TNFα REC50.

Read-outs that look alike come from different tables or passages of the source.

As a reminder, the IC50 is the concentration at which inhibition is half-maximal.

T1 sequence (Q16539 whole entry): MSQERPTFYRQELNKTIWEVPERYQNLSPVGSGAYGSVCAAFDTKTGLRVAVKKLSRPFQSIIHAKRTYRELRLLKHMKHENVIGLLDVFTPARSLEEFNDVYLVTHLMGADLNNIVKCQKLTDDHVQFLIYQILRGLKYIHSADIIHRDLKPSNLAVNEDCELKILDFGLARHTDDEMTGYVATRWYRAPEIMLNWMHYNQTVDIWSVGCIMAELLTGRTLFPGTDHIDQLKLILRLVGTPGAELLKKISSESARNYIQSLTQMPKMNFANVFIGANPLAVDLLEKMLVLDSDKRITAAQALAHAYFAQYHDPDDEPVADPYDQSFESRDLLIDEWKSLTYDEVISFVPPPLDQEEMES

As for `Cc1ccc(-n2nc(C(C)(C)C)cc2NC(=O)Nc2ccc(Oc3ccnc(NC(=O)NC4CC4)c3)c3ccccc23)cc1` [Example 33, 1-(4-((2-(3-Cyclopropylureido)pyridin-4-yl)oxy)naphthalen-1-yl)-3-(3-(tert-butyl)-1-(p-tolyl)-1H-pyrazol-5-yl)urea], the results for the IC50 at p38 MAPK alpha (MAPK14) (Table 3), with BEAS2B cells (Table 3) and in the data set with THP-1 cells (setting [4]) were less than 5000 nM, less than 5000 nM and less than 10 nM, respectively. Besides, the EC50 in the data set with U937 cells [1] (setting [5]) was less than 10 nM. Besides, the “DU937 (cell viability) MTT assay 4 h” value in data set [2] (setting [6]) and in data set [2] (setting [7]) was “− (<=30%)” throughout.
Consider `COCC(=O)Nc1cc(Oc2ccc(NC(=O)Nc3cc(C(C)(C)C)nn3-c3ccc(C)cc3)c(C)c2)ccn1` [Example 24, N-(4-(4-(3-(3-tert-Butyl-1-p-tolyl-1H-pyrazol-5-yl)ureido)-3-methylphenoxy)pyridin-2-yl)-2-methoxyacetamide], for which the IC50 in the data set with U937 cells [3] (Table 2) was less than 10 nM; on p38 MAPK alpha (MAPK14) (Table 2), less than 5000 nM; with THP-1 cells (setting [8]) it was less than 10 nM. For the same molecule, the EC50 in the data set with U937 cells [1] (setting [5]) was less than 10 nM. Besides, the “DU937 (cell viability) MTT assay 4 h” value in data set [2] (setting [9]) is “− (<=30%)”. The “DU937 (cell viability) MTT assay 24 h” value in data set [2] (setting [9]) is “+ (>30%)”.
Regarding `Cc1ccc(-n2nc(C(C)(C)C)cc2NC(=O)Nc2ccc(Oc3ccnc(NC(=O)NC4CCN(S(C)(=O)=O)CC4)c3)c3ccccc23)cc1` [Example 41, N-Methylsulfonyl-4-(3-(4-(4-(3-(3-tert-butyl-1-p-tolyl-1H-pyrazol-5-yl)ureido)naphthalen-1-yloxy)pyridin-2-yl)ureido)piperidine], the IC50 was less than 5000 nM in the data set with U937 cells [3] (Table 3), less than 10 nM on p38 MAPK alpha (MAPK14) (Table 3) and less than 10 nM in the data set on THP-1 cells (setting [4]). Also, the EC50 in the data set with U937 cells [1] (setting [5]) is less than 5000 nM. Also, the “DU937 (cell viability) MTT assay 4 h” value is on record as “− (<=30%)” in data set [2] (setting [6]) and “+ (>30%)” in data set [2] (setting [7]).
As for `Cc1ccc(-n2nc(C(C)(C)C)cc2NC(=O)Nc2ccc(Oc3ccnc(NC(=O)NC4CC4)n3)c3ccccc23)cc1` [Example 69, 1-Cyclopropyl-3-(4-(4-(3-(3-tert-butyl-1-p-tolyl-1H-pyrazol-5-yl)ureido)naphthalen-1-yloxy)pyrimidin-2-yl)urea], the IC50 is less than 10 nM in the data set with U937 cells [3] (Table 1); less than 10 nM on p38 MAPK alpha (MAPK14) (Table 1); less than 5000 nM in the data set on THP-1 cells (THP-1, Table 1, read-out: THP-1 (LPS) TNFα IC50). In addition, the EC50 in the data set with U937 cells [1] (setting [5]) is less than 10 nM. In addition, the “DU937 (cell viability) MTT assay 4 h” value in data set [2] (Table 1, MTT, loss of cell viability at 1 μg/ml) is listed as “− (<=30%)”; in data set [2] (Table 1, first MTT column, loss of cell viability at 1 μg/ml) it was “− (<=30%)”.
Take `CSCC(=O)Nc1cc(Oc2ccc(NC(=O)Nc3cc(C(C)(C)C)nn3-c3ccc(C)cc3)c3ccccc23)ccn1` [Example 3, N-(4-(4-(3-(3-tert-Butyl-1-p-tolyl-1H-pyrazol-5-yl)ureido)naphthalen-1-yloxy)pyridin-2-yl)-2-(methylthio)acetamide]: the 50% inhibitory concentration (IC50) is less than 10 nM in the data set on U937 cells [3] (Table 2), less than 5000 nM with BEAS2B cells (Table 2) and less than 10 nM with THP-1 cells (setting [8]). In the data set on U937 cells [1] (setting [5]), the EC50 is less than 5000 nM. For the same molecule, the “DU937 (cell viability) MTT assay 4 h” value in data set [2] (setting [10]) is on record as “−^$ (<=30%)”. The “DU937 (cell viability) MTT assay 24 h” value in data set [2] (setting [10]) was “+^$ (>30%)”.
Turning to `Cc1ccc(-n2nc(C(C)(C)C)cc2NC(=O)Nc2ccc(Oc3ccnc(NC(=O)C4CCOCC4)c3)c3ccccc23)cc1` [Example 2, N-(4-(4-(3-(3-tert-Butyl-1-p-tolyl-1H-pyrazol-5-yl)ureido)naphthalen-1-yloxy)pyridin-2-yl)tetrahydro-2H-pyran-4-carboxamide], the 50% inhibitory concentration (IC50) with U937 cells [3] (Table 2), in the data set on BEAS2B cells (Table 2) and in the data set with THP-1 cells (setting [8]) was less than 10 nM in each case. Moreover, in the data set on U937 cells [1] (setting [5]), the EC50 is less than 5000 nM. In addition, in data set [2] (setting [10]), the “DU937 (cell viability) MTT assay 4 h” value is “−^$ (<=30%)”. For the same molecule, in data set [2] (setting [10]), the “DU937 (cell viability) MTT assay 24 h” value is given as “+^$ (>30%)”.
Turning to `COCC(=O)Nc1cc(Oc2ccc(NC(=O)Nc3cc(C(C)(C)C)nn3-c3ccc(C)cc3)c3ccccc23)ccn1` [Example 8, N-(4-(4-(3-(3-tert-Butyl-1-p-tolyl-1H-pyrazol-5-yl)ureido)naphthalen-1-yloxy)pyridin-2-yl)-2-methoxyacetamide], the IC50 in the data set on U937 cells [3] (Table 2) is less than 10 nM; with BEAS2B cells (Table 2) it was less than 10 nM; in the data set on THP-1 cells (setting [8]) it was less than 5000 nM. Besides, the EC50 with U937 cells [1] (setting [5]) is less than 10 nM. Besides, the “DU937 (cell viability) MTT assay 4 h” value in data set [2] (setting [9]) was “− (<=30%)”. In addition, in data set [2] (setting [9]), the “DU937 (cell viability) MTT assay 24 h” value was “+ (>30%)”.
With `COCCC(=O)Nc1cc(Oc2ccc(NC(=O)Nc3cc(C(C)(C)C)nn3-c3ccc(C)cc3)c3ccccc23)ccn1` [Example 4, N-(4-(4-(3-(3-tert-Butyl-1-p-tolyl-1H-pyrazol-5-yl)ureido)naphthalen-1-yloxy)pyridin-2-yl)-3-methoxypropanamide], the IC50 in the data set with U937 cells [3] (Table 2), with BEAS2B cells (Table 2) and with THP-1 cells (setting [8]) was less than 10 nM throughout. In addition, the EC50 in the data set with U937 cells [1] (setting [5]) was less than 10 nM. For the same molecule, the “DU937 (cell viability) MTT assay 4 h” value in data set [2] (setting [10]) is recorded as “−^$ (<=30%)”. In addition, the “DU937 (cell viability) MTT assay 24 h” value in data set [2] (setting [10]) is recorded as “+^$ (>30%)”.
For the molecule `COCCOCC(=O)N1CCC(NC(=O)Nc2cc(Oc3ccc(NC(=O)Nc4cc(C(C)(C)C)nn4-c4ccc(C)cc4)c4ccccc34)ccn2)CC1` [Example 40, 2-(2-Methoxyethoxy)-1-(4-(3-(4-(4-(3-(3-tert-butyl-1-p-tolyl-1H-pyrazol-5-yl)ureido)naphthalen-1-yloxy)pyridin-2-yl)ureido)piperidin-1-yl)ethanone], the IC50 in the data set on U937 cells [3], in the data set with BEAS2B cells and in the data set on THP-1 cells (setting [11]) was less than 10 nM throughout. The EC50 with U937 cells [1] (setting [12]) is less than 10 nM. Besides, the “DU937 (cell viability) MTT assay 4 h” value in data set [2] (setting [6]) is “− (<=30%)”; in data set [2] (setting [7]) it was “+ (>30%)”.
Take `[2H]c1c([2H])c(C([2H])([2H])[2H])c([2H])c([2H])c1-n1nc(C(C)(C)C)cc1NC(=O)Nc1ccc(Oc2ccnc(NC(=O)COC)c2)c2ccccc12` [Example 10, N-(4-(4-(3-(3-tert-butyl-1-(2,3,5,6-tetradeutero-4-(trideuteromethyl)phenyl)-1H-pyrazol-5-yl)ureido)naphthalen-1-yloxy)pyridin-2-yl)-2-methoxyacetamide]: the IC50 in the data set on U937 cells [3] (Table 2), in the data set on BEAS2B cells (Table 2) and in the data set on THP-1 cells (setting [8]) was less than 10 nM in each case. Also, the EC50 in the data set on U937 cells [1] (setting [5]) is less than 10 nM. Moreover, in data set [2] (setting [9]), the “DU937 (cell viability) MTT assay 4 h” value is recorded as “− (<=30%)”. In addition, the “DU937 (cell viability) MTT assay 24 h” value in data set [2] (setting [9]) was “+ (>30%)”.
Consider `COCCOCC(=O)Nc1cc(Oc2ccc(NC(=O)Nc3cc(C(C)(C)C)nn3-c3ccc(C)cc3)c3ccccc23)ccn1` [Example 1, N-(4-(4-(3-(3-tert-Butyl-1-p-tolyl-1H-pyrazol-5-yl)ureido)naphthalen-1-yloxy)pyridin-2-yl)-2-(2-methoxyethoxy)acetamide], for which the values for the IC50 in the data set with U937 cells [3], in the data set with BEAS2B cells and in the data set on THP-1 cells (setting [11]) were less than 5000 nM, less than 5000 nM and less than 10 nM, respectively. Besides, in the data set on U937 cells [1] (setting [12]), the EC50 is less than 10 nM. Moreover, in data set [2] (setting [10]), the “DU937 (cell viability) MTT assay 4 h” value is listed as “−^$ (<=30%)”. The “DU937 (cell viability) MTT assay 24 h” value in data set [2] (setting [10]) is on record as “+^$ (>30%)”.
